What follows are compounds tested on methane production in human stool (assay: Methane production in human stool homogenates of IBS-C patients (head gas analysed by gas chromatography)). Details: stool homogenates of methane-producing human IBS-C patients, anaerobic chamber; 0.5, 1, 5 and 10 mg of statin per g of stool; head gas at baseline, 90 minute intervals for 3 hours and overnight (~720 min); FIG. 4.
Assay type: cell-based
Procedure: Fresh stool samples were provided by two methane-producing human IBS-C patients (breath methane>10 ppm) who had provided an informed consent. Different concentrations of stool from each patient were homogenized in deoxygenated PBS (3 ml PBS/2 g stool) inside an anaerobic incubation chamber. Plead gas was extracted through a stopcock at various timepoints ([…], and following overnight incubation) and methane levels in the head gas at each timepoint were analyzed by gas chromatography using a Quintron SC gas chromatograph (Quintron Instrument Company, Milwaukee, Wis.).
The effects of lovastatin lactone, lovastatin ß-hydroxyacid and lovastatin diol on methane production were evaluated by incubating various concentrations of these molecules (0 mg, 0.5 mg, 1 mg, 5 mg and 10 mg of statin per g of human stool) with human stool homogenates in an anaerobic chamber as described above. Plead gas samples were drawn from each flask for methane analysis at baseline and at 90 minute intervals for 3 hours, followed by a final sample after overnight incubation (˜720 min).

SMILES	inhibition of methane production in human stool
CC[C@H](C)C(=O)O[C@H]1C[C@@H](C)C=C2C=C[C@H](C)[C@H](CC[C@@H](O)C[C@@H](O)CC(=O)O)[C@H]21 [lovastatin R-hydroxyacid, lovastatin ß-hydroxyacid]	ineffective as an inhibitor of methane production
C[C@H]1C=C2C=C[C@H](C)[C@H](CCC3C[C@@H](O)CC(=O)O3)[C@H]2[C@@H](O)C1 (stereo partly drawn) [lovastatin diol lactone]	effective inhibitors of methane production
CC[C@H](C)C(=O)O[C@H]1C[C@@H](C)C=C2C=C[C@H](C)[C@H](CC[C@@H]3C[C@@H](O)CC(=O)O3)[C@H]21 [Lovastatin lactone, lovastatin lactone]	effective inhibitors of methane production

From patent US11590102B2, “Anti-methanogenic lovastatin analogs or derivatives and uses thereof” (CEDARS-SINAI MEDICAL CENTER, priority 2015, dated 2023)
